Where two headings read alike, the source gives them in different places.
Columns and labels:
A. baumanii ATCC 19606 = test: Murine neutropenic thigh infection model; type: in vivo, mice; conditions: neutropenic mouse thigh, A. baumanii ATCC 19606 (FIG. 4C)
human erythrocytes = test: Hemolysis of human erythrocytes relative to Triton X-100; type: cell-based; conditions: result in words
[1] = system: methicillin-resistant Staphylococcus aureus (MRSA); test: MIC, panel of clinically derived MRSA strains; type: cell-based; conditions: result in words
Method: Minimum inhibitory concentrations (MICs) were determined by broth microdilution method or agar dilution method following the Clinical and Laboratory Standards Institute guidelines. Standard bacterial strains were obtained from American Type Culture Collection (ATCC). Other bacterial strains were obtained from hospitals and commercial sources, so noted in Table 11. Before the start of the MIC experiment, standard and test compound stock solutions were prepared in dimethyl sulfoxide (DMSO, Aldrich D2650) at a stock concentration of 5,120 μg/mL. The compound concentration range typically employed for each experiment was 128-0.06 μg/mL (2.5% final DMSO concentration). Clindamycin was used as a comparator in all experiments and each experiment was performed in triplicate. Specialized procedures were employed for streptococcal and anaerobic strains. All other bacterial strains were sub-cultured on blood agar plates (tryptic soy agar with 5% sheep blood, Hardy Diagnostics) and incubated overnight at 35° C. Organisms were suspended in cation-adjusted Mueller-Hinton broth (CaMHB, BD 212322) and optical density was adjusted to 0.5 McFarland standard. Suspensions were further diluted to obtain a final inoculum of 5×10^5 CFU/mL for broth microdilution experiments.

ribosome = test: Toeprinting analysis (primer extension inhibition) in cell-free translation, ermBL and ermDL templates; type: biochemical; conditions: 50 μM
Method: Toeprinting analysis: The ermBL DNA template for toeprinting was generated by a 4-primer cross-over PCR using primers T7, NV1, ermB3-F and ermB3-R. The ermDL template was generated in the same way using primers RLR-fwd, RLR-rev, T7-SD-fwd and T7-SD-rev. In vitro translation in the PURExpress system (New England Biolabs) and toeprinting analysis were carried out as described previously. […]
Primer sequences used for toeprinting are as follows: T7 (TAATACGACTCACTATAGGG); NV1 (GGTTATAATGAATTTTGCTTATTAAC); ermB3-F (TAATACGACTCACTATAGGGCTTAAGTATAAGGAGGAAAAAATATGTTGGTATTCCAAATGCGTAATGTAGATAAAACATCTAC); ermB3-R (GGTTATAATGAATTTTGCTTATTAACGATAGAATTCTATCACTTATTTCAAAATAGTAGATGTTTTATCTACATTACG); RLR-fwd (GGAGGAAAAAATATGACACACTCAATGAGACTTCGTATTTTCCC); RLR-rev (CTATCACTTACAAAGTTGGGAAAATACGAAGTCTCATTGAG); T7-SD-fwd (TAATACGACTCACTATAGGGCTTAAGTATAAGGAGGAAAAAATATGACACACTCAATG); T7-SD-rev (GGTTATAATGAATTTTGCTTATTAACGATAGAATTCTATCACTTACAAAGTTGGGAAAAT).

E. coli strain SQ110DTC = test: Selection of FSA-513018b resistant mutants in SQ110DTC; type: cell-based; conditions: SQ110DTC plated on agar containing FSA-513018b
Method: […]. […] Approximately 20 colonies appeared on both plates after incubation at 37° C. for 24 h. The segment of the 23S rRNA gene corresponding to domains V and VI of the 23S rRNA was PCR-amplified from 14 randomly selected colonies using the primers 2020R (CCCGAGACTCAGTGAAATTGAACTC) and L2904 (AAG GTT AAG CCT CAC GG). PCR products were sequenced using the primer L2667 (GGTCCTCTCGTACTAGGAGCAG).

S. pyogenes ATCC 19615 = type: in vivo
Method: The optical density of the bacterial suspension was adjusted to 0.1 at 600 nm using sterile BHIB and was then further diluted 1:1 in 10% hog gastric mucin (HGM, type III) to prepare the infecting inoculum in 5% HGM. Mice were infected by intraperitoneal injection of 250 μL, infecting inoculum, representing 1-2×10^6 CFU per animal. […] Animals were monitored for survival for seven days following infection.

[2] = system: susceptible S. aureus and E. faecium strains; test: Time-kill studies; type: cell-based
Method: . Experiments were performed in duplicate following CLSI guidelines. An inoculum was prepared in Mueller-Hinton broth (MHB) containing 0.5-5×10^6 CFU/mL of test organism. Cultures were incubated at 37° C. in a shaker incubator at 110 rpm; a flask containing bacteria left unexposed to antibiotic was used as untreated control. At time points 0, 1, 3, 6, and 24 h following administration of antibiotic, bacterial counts were determined from each flask by serial dilution and plating on brain heart infusion agar (BD, Sparks, M D). Plates were incubated at 37° C. in incubators for 18-24 hours to determine bacterial counts. For streptococcal strains, blood agar plates (Tryptic Soy Agar with 5% Sheep Blood) were used for culturing the organisms (plates were incubated in the presence of 5% CO2), and time-kill studies were performed in media supplemented with 5% laked horse blood.

Compound: CSC1O[C@H]([C@H](NC(=O)[C@H]2NC[C@@H]3C[C@H](CC(C)C)CCO[C@H]32)[C@H](C)Cl)C(O)[C@@H](O)[C@H]1O (stereo partly drawn) [FSA-513018b]
- efficacy in thigh infection model (A. baumanii ATCC 19606): effective
- hemolysis (human erythrocytes): non-hemolytic
- activity against a panel of clinically derived MRSA strains [1]: uniformly high activity
- translation arrest at the start codons of model ORFs (toeprinting) (ribosome): firmly locked the ribosome at the start codons, allowing virtually no escape
- frequency of resistant clones (E. coli strain SQ110DTC): ~10^−8
- Mice surviving (S. pyogenes ATCC 19615; 1 mg/kg i.v., Day 1, n=8, clindamycin given as clindamycin phosphate): 8
- Mice surviving (S. pyogenes ATCC 19615; 1 mg/kg i.v., Day 2, n=8): 7
- Mice surviving (S. pyogenes ATCC 19615; 1 mg/kg i.v., Day 3, n=8): 7
- Mice surviving (S. pyogenes ATCC 19615; 1 mg/kg i.v., Day 4, n=8): 7
- Mice surviving (S. pyogenes ATCC 19615; 1 mg/kg i.v., Day 5, n=8): 7
- Mice surviving (S. pyogenes ATCC 19615; 1 mg/kg i.v., Day 6, n=8): 7
- Mice surviving (S. pyogenes ATCC 19615; 1 mg/kg i.v., Day 7, n=8): 7
- Mice surviving (S. pyogenes ATCC 19615; 3 mg/kg i.v., Day 1, n=8): 8
- Mice surviving (S. pyogenes ATCC 19615; 3 mg/kg i.v., Day 2, n=8): 8
- Mice surviving (S. pyogenes ATCC 19615; 3 mg/kg i.v., Day 3, n=8): 8
- Mice surviving (S. pyogenes ATCC 19615; 3 mg/kg i.v., Day 4, n=8): 8
- Mice surviving (S. pyogenes ATCC 19615; 3 mg/kg i.v., Day 5, n=8): 8
- Mice surviving (S. pyogenes ATCC 19615; 3 mg/kg i.v., Day 6, n=8): 8
- Mice surviving (S. pyogenes ATCC 19615; 3 mg/kg i.v., Day 7, n=8): 8
- Mice surviving (S. pyogenes ATCC 19615; 10 mg/kg i.v., Day 1, n=8): 8
- Mice surviving (S. pyogenes ATCC 19615; 10 mg/kg i.v., Day 2, n=8): 8
- Mice surviving (S. pyogenes ATCC 19615; 10 mg/kg i.v., Day 3, n=8): 8
- Mice surviving (S. pyogenes ATCC 19615; 10 mg/kg i.v., Day 4, n=8): 8
- Mice surviving (S. pyogenes ATCC 19615; 10 mg/kg i.v., Day 5, n=8): 8
- Mice surviving (S. pyogenes ATCC 19615; 10 mg/kg i.v., Day 6, n=8): 8
- Mice surviving (S. pyogenes ATCC 19615; 10 mg/kg i.v., Day 7, n=8): 8
- rescue of infected animals (S. pyogenes ATCC 19615; S. pyogenes systemic infection, i.v. twice daily for two days): complete rescue
- tolerability (S. pyogenes ATCC 19615; infected mice, 1, 3 or 10 mg/kg i.v. twice daily for two days, all dose levels): well-tolerated
- cidality in time-kill ([2]; certain highly susceptible strains): concentration-dependent cidality
- mode of action in broth culture profiling (time-kill) ([2]; result in words): bacteriostatic

From patent publication US20230203081A1, “LINCOSAMIDE ANTIBIOTICS AND USES THEREOF” (President and Fellows of Harvard College, priority 2020, published 2023)
